Laboratory results taken from US12251366B1, “Sulforaphane-cysteine for wound healing in diabetic subjects” (KUWAIT UNIVERSITY, priority 2024, dated 2025).

System: TNF-α
Experiment: Cytokine ELISA, LPS-stimulated peritoneal macrophages (TNF-α)
Format: cell-based, mouse
Conditions: LPS-stimulated macrophages, mouse model of type 2 diabetes
Description: This was exemplified in the current study by the ability of SFN-CYS to inhibit lipopolysaccharide (LPS)-induced peritoneal macrophages and bone marrow-derived macrophages to produce tumor necrosis factor-α (TNF-α) and interlukin-6 (IL-6). TNF-α and IL-6 are two of the major inflammatory mediators that contribute to the pathogenesis of low-grade inflammation; a phenomenon which is commonly associated with the diabetic state. […] Pre-treatment with SFN-Cys inhibited the expression of LPS-induced TNF-α and IL-6 protein at a therapeutic dose of 1.5 μM (FIGS. 1A and 1B).
Thioglycollate-elicited mouse peritoneal macrophages were prepared from C57BL (8-10 weeks old) and cultured in RPMI 1640 with 10% (v/v) FCS Bone marrow-derived macrophages were generated in RPMI medium containing M-CSF (10 ng/mL) according to previously published procedure. For cytokine ELISA assay, cells were seeded at 5×10^5 in 12-well plates, whereas for mRNA expression, the cells were seeded at […]. LPS and used at a dose of 100 ng/mL. Similarly. SFN-Cys was used at a concentration of 1.5 umol/L.
For cytokine ELISA, supernatants from cultured macrophages were collected in response to treatment with SFN and SFN-Cys for 6 h. The total TNF-α and TL-6 were measured by enzyme-linked immunosorbent assay (ELISA) using kits (R&D system, USA) according to the manufacturer's protocols.

## C[S+]([O-])CCCCN=C=S (stereo not shown) [SFN, Sulforaphane]
  anti-inflammatory activity (overall, SFN-Cys compared with SFN): exhibited anti-inflammatory and antioxidant activities
